US20060074073A1, “Therapeutic combinations comprising poly (ADP-ribose) polymerases inhibitor” (AGOURON PHARMACEUTICALS, INC., priority 2004, published 2006)
Values joined by “and” are separate entries in the source; they are usually repeats but may differ in a detail not shown here. Identical values can stand only once. Marks after values point to notes of the source that are not given here.

Legend:
PARP [1] = assay: PARP activity in peripheral blood lymphocytes of patients (monoclonal antibody assay); type: in vivo, human
Experimental: (§1) Whole blood was collected into EDTA vacutainers and human PBLs were obtained by lymphopreparation according to the manufacturers instructions. Tumour biopsies were collected from the operating theatre in a sterile container and placed immediately on ice. Within 30 minutes tumour samples were snap frozen in liquid nitrogen and stored at −80° C. until homogenised for analysis. The specimen was defrosted on ice and the wet weight documented. For weights over 100 mg the tissue was homogenised using a Pro 2000 instrument (Pro Scientific Inc, Monroe, Conn., USA) in 3 volumes (i.e. 1 mg plus 3 μl isotonic buffer −7 mM Hepes, 26 mM KCl, 0.1 mM dextran, 0.4 mM EGTA, 0.5 mM MgCl2, 45 mM sucrose, pH 7.8), giving a homogenate with an overall dilution of 1 in 4. Where smaller samples had been obtained they were homogenised in 99 or 999 volumes, giving final dilutions of 1 in 100 and 1 in 1000, respectively. The homogenate was kept on ice throughout the process, and homogenisation was performed in 10 second bursts to prevent undue warming of the sample. Unless assayed on the day of homogenisation, samples were re-frozen to −80° C. and stored at this temperature until analysed. Prior to assay the samples were further diluted with isotonic buffer where necessary to give a final dilution of 1 in 1000.
Cultured cells or rapidly defrosted lymphocyte preparations were washed twice in ice cold PBS. The cell pellets were resuspended in 0.15 mg/ml digitonin to a density of approximately 1-2×10^6 cells per ml for 5 minutes to permeabilise the cells, following which 9 volumes of ice-cold buffer (7 mM HEPES, 26 mM KCl, 0.1 mM dextran, 0.4 mM EGTA, 0.5 mM MgCl2, 45 mM sucrose, pH 7.8) were added and the sample placed on ice. The permeabilised (i.e. trypan blue stained) cell density was counted and the cell suspension was diluted if necessary with the above buffer to achieve a cell density that allowed 20,000 permeabilised cells to be added to each reaction tube. In the assay maximally stimulated PARP activity is measured by exposure to a blunt ended oligonucleotide in the presence of NAD^+ substrate, at 26° C. in an oscillating water bath. Five μl of 7 mM NAD^+ and 5 μl 200 μg/ml pallindromic oligonucleotide ([…]) were mixed with permeabilised cells and reaction buffer (100 mM Tris HCl, 120 mM MgCl2, pH 7.8) to a final volume of 100 μl. The reaction was stopped after 6 minutes by the addition of excess PARP inhibitor (400 μl of 12.5 μM Compound I) and the cells blotted onto a nitrocellulose membrane (Hybond N, Amersham) using a 24-well manifold. A purified PAR standard curve was loaded onto each membrane (0-25 pmol monomer equivalent) to allow quantification. Overnight incubation with the primary antibody (1 in 500 in PBS-MT (PBS plus 0.05% Tween 20 Plus 5% Milk powder) at 4° C. was followed by 2 washes in PBS-T (PBS plus 0.05% Tween 20) and then incubation in secondary antibody (1 in 1000 in PBS-MT) for 1 hour at room temperature. The incubated membrane was washed frequently with PBS over the course of one hour then exposed for one minute to ECL reaction solution as supplied by the manufacturer. Chemiluminesence detected during a 5 minute exposure was measured using a Fuji LAS3000 UV Illuminator (Raytek, Sheffield, UK) and digitised using the imaging software (Fuji LAS Image version 1.1, Raytek). The acquired image was analysed using Aida Image Analyser (version 3.28.001), and results expressed in LAU/mm^2. Three background areas on the exposed blot were measured and the mean of the background signal from the membrane subtracted from all results. The PAR polymer standard curve was analysed using an un-weighted one site binding non-linear regression model and unknowns read off the standard curve so generated. Results were then expressed relative to the number of cells loaded. Triplicate QC samples of 5000 L1210 cells were run with each assay, all samples from one patient being analysed on the same blot. […]

PARP [2] = assay: PARP inhibition in tumor biopsies of patients; type: in vivo, human
Experimental: as §1
Tumour homogenates were assayed in a similar manner; however, the homogenisation process introduces sufficient DNA damage to maximally stimulate PARP activity and oligonucleotide was not therefore required. The protein concentration of the homogenate was measured using the BCA protein assay and Titertek Multiscan MCC/340 plate reader. Results can be expressed in terms of pmol PAR former per mg protein or per mg tumour.
A pharmacodynamic assay for PARP activity and inhibition uses monoclonal antibodies to measure the amount of PAR polymer that is formed under set conditions in permeabilized peripheral blood lymphocytes and homogenized tumor samples. The quantity of polymer formed can be used as a correlate for PARP activity, whereby decreasing polymer formation correlates with degree of PARP inhibition. PARP activity is expressed as a percentage of baseline, and is calculated by dividing the amount of PAR polymer formed after infusion by the quantity formed before infusion. The feasibility of this assay was successfully tested in the 12 patients Phase 2 study of single-agent temozolomide in patients with metastatic melanoma.
Using a pharmacodynamic assay for PARP activity disclosed in Section C above, PARP inhibition in peripheral blood lymphocytes and tumor tissue was assessed in a Phase 1 clinical trial. As indicated above, enrollment in the Phase 1 Part 2 study has been restricted to patients having metastatic melanoma with biopsiable disease. All patients have been required to consent to pre-treatment and post-treatment biopsies such that PARP activity in the tumor can be evaluated.

LoVo xenografts = assay: Ex-vivo clonogenic assay of irradiated LoVo xenografts; type: in vivo
Experimental: 24 h later tumors were excised, disaggregated to obtain single cell suspensions and plated for colony forming assay. […] The SF for the 15 mg/kg and 30 mg/kg IR combinations equated to that which would have been achieved using radiation doses of 8 Gy or 9.5 Gy, giving dose modification factors (DMF) of 1.6 and 1.9 respectively.

CNCc1ccc(-c2[nH]c3cc(F)cc4c3c2CCNC4=O)cc1.O=P(O)(O)O [Compound I, phosphate salt of 8-fluoro-2-{4-[(methylamino)methyl]phenyl}-1,3,4,5-tetrahydro-6H-azepino[5,4,3-cd]indol-6-one]
decrease in median PARP activity (PARP [1]; PBL, all patients regardless of dose, after completion of the 30-minute infusion on Day 1): ≥ 50%
% Pretreatment PARP Activity, Median (%) (PARP [1]; PBL, cohort 1, Compound I 1 mg/m^2, 4-6 h, after test dose (usually Day −7)): 57%
% Pretreatment PARP Activity, Median (%) (PARP [1]; PBL, cohort 1, Compound I 1 mg/m^2, 0.5 h, after test dose (usually Day −7)): 18%
% Pretreatment PARP Activity, Median (%) (PARP [1]; PBL, cohort 1, Compound I 1 mg/m^2, 24 h, after test dose (usually Day −7)): 77%
% Pretreatment PARP Activity, Median (%) (PARP [1]; PBL, cohort 2, Compound I 2 mg/m^2, 4-6 h, Day 1): 27%
% Pretreatment PARP Activity, Median (%) (PARP [1]; PBL, cohort 2, Compound I 2 mg/m^2, 0.5 h, Day 1): 10%
% Pretreatment PARP Activity, Median (%) (PARP [1]; PBL, cohort 2, Compound I 2 mg/m^2, 24 h, Day 1): 36%
% Pretreatment PARP Activity, Median (%) (PARP [1]; PBL, cohort 3, Compound I 4 mg/m^2, 4-6 h, Day 1): 28%
% Pretreatment PARP Activity, Median (%) (PARP [1]; PBL, cohort 3, Compound I 4 mg/m^2, 0.5 h, Day 1): 42%
% Pretreatment PARP Activity, Median (%) (PARP [1]; PBL, cohort 3, Compound I 4 mg/m^2, 24 h, Day 1): 108%
% Pretreatment PARP Activity, Median (%) (PARP [1]; PBL, cohort 4, Compound I 8 mg/m^2, 4-6 h, Day 1): 16%
% Pretreatment PARP Activity, Median (%) (PARP [1]; PBL, cohort 4, Compound I 8 mg/m^2, 0.5 h, Day 1): 1%
% Pretreatment PARP Activity, Median (%) (PARP [1]; PBL, cohort 4, Compound I 8 mg/m^2, 24 h, Day 1): 9%
% Pretreatment PARP Activity, Median (%) (PARP [1]; PBL, cohort 9, Compound I 18 mg/m^2, 4-6 h, Day 1): 7.5%
% Pretreatment PARP Activity, Median (%) (PARP [1]; PBL, cohort 9, Compound I 18 mg/m^2, 0.5 h, Day 1): 6%
% Pretreatment PARP Activity, Median (%) (PARP [1]; PBL, cohort 9, Compound I 18 mg/m^2, 24 h, Day 1): 14%
median reduction in PARP activity (PARP [1]; PBL, cohorts 4 and 5, 24 hours after Day 1 dose): > 50%
% Pretreatment PARP Activity, Median (%) (PARP [1]; PBL, cohorts 5-8, Compound I 12 mg/m^2, 4-6 h, Day 1): 13%
% Pretreatment PARP Activity, Median (%) (PARP [1]; PBL, cohorts 5-8, Compound I 12 mg/m^2, 0.5 h, Day 1): 14.5%
% Pretreatment PARP Activity, Median (%) (PARP [1]; PBL, cohorts 5-8, Compound I 12 mg/m^2, 24 h, Day 1): 29%
PARP inhibitory dose (PID) (PARP [1]; patients, PARP activity in peripheral blood lymphocytes <50% of baseline 24 hours after Day 1 dose, with plateau): 12 mg/m^2
% PARP Inhibition (PARP [2]; tumor biopsy 4-6 h, temozolomide 135 mg/m^2, Compound I 12 mg/m^2, day 1, individual patients): 91%
% PARP Inhibition (PARP [2]; tumor biopsy 4-6 h, temozolomide 135 mg/m^2, Compound I 12 mg/m^2, day 4, individual patients): 85% and 50%
% PARP Inhibition (PARP [2]; tumor biopsy 4-6 h, temozolomide 170 mg/m^2, Compound I 12 mg/m^2, day 1, individual patients): 77% and 98%
% PARP Inhibition (PARP [2]; tumor biopsy 4-6 h, temozolomide 170 mg/m^2, Compound I 12 mg/m^2, day 5, individual patients): 93%
% PARP Inhibition (PARP [2]; tumor biopsy 4-6 h, temozolomide 200 mg/m^2, Compound I 12 mg/m^2, day 1, individual patients): 90% and 88%
% PARP Inhibition (PARP [2]; tumor biopsy 4-6 h, temozolomide 200 mg/m^2, Compound I 18 mg/m^2, day 1, individual patients): 98% and 94% and 89% and 97%
% PARP Inhibition (PARP [2]; tumor biopsy 4-6 h post-treatment, temozolomide 100 mg/m^2, Compound I 4 mg/m^2, day 1, individual patients): 79%
% PARP Inhibition (PARP [2]; tumor biopsy at 24 hours post-treatment on day 1, temozolomide 200 mg/m^2, Compound I 18 mg/m^2): 86%*

CNCc1ccc(-c2[nH]c3cc(F)cc4c3c2CCNC4=O)cc1 [compound of formula 1, 8-fluoro-2-{4-[(methylamino)methyl]phenyl}-1,3,4,5-tetrahydro-6H-azepino[5,4,3-cd]indol-6-one]
DMF, dose modification factor (LoVo xenografts; 15 mg/kg + 5 Gy): 1.6
SF, surviving fraction (LoVo xenografts; 15 mg/kg + 5 Gy): 0.06
radiation dose that would give the same SF (LoVo xenografts; 15 mg/kg + 5 Gy): 8 Gy
DMF, dose modification factor (LoVo xenografts; 30 mg/kg + 5 Gy): 1.9
SF, surviving fraction (LoVo xenografts; 30 mg/kg + 5 Gy): 0.03
radiation dose that would give the same SF (LoVo xenografts; 30 mg/kg + 5 Gy): 9.5 Gy
